The values that follow come from paper PMC9544254 (Clinical and Experimental Allergy, 2022).

One data set deals with Cathepsin G (Homo sapiens, UniProt P08311). Description: isolated enzyme kinetic fluorogenic substrate IC50 assay. It counts as biochemical. The note with it: 5 min pre‐incubation.
A further data set concerns the target Beta‐secretase 1 (Homo sapiens, UniProt P56817). The data set is described as above. The following applies: 5 min pre‐incubation. It counts as biochemical.
Data set [1] has as its system plasma prekallikrein (PK). Description: phase 1: capillary immunoassay of PK in DXS‐stimulated plasma after oral KVD900. The class given is in vivo, human. The note with it: healthy volunteers, 600 mg oral. Here is the method:
(§1) Undiluted plasma samples obtained at pre‐dose and post‐dose from healthy controls and HAE patients from clinical trials with KVD900, described below, were stimulated with DXS, as described above. Reactions were stopped by rapidly heating samples to 95°C for 10 min in Laemmli buffer containing β‐mercaptoethanol. Components of the KKS in plasma samples (diluted 1:20) were separated by capillary electrophoresis using 12–230 kDa separation modules in the Protein Simple WES^TM system (ProteinSimple). Proteins were detected by immunoassay and quantified from peak areas corresponding to chemiluminescence intensities using Compass for Simple Western software (Version 4.0.0, ProteinSimple) and visualized as virtual blots generated from capillary electropherograms as previously described.[18] Standard curves were generated to estimate protein concentrations in plasma using known quantities of purified HK, plasma prekallikrein (PK), FXII and FXIIa (Enzyme Research Laboratories), spiked into HK (Affinity Biologicals), PK (Affinity Biologicals) and FXII (Technoclone) deficient plasma respectively. Immunodetection was performed using primary antibodies for PK (clone 13G11) (Invitrogen), HK and cHK: KNG17A12 Antibody (Molecular Innovations), FXII and FXIIa: FXII20B2 antibody (Molecular Innovations) and horseradish peroxidase‐conjugated secondary antibody. The anti‐HK light chain antibody used detected HK and two cHK bands. The total cHK was quantified by taking the sum of the peak areas for both cHK bands.
(§2) Participants with HAE were within their intercritical period. Blood samples were collected into 3.2% sodium citrate, centrifuged at 1500 g for 10 min at 4°C, and plasma was stored at −80°C until analysis. Additional information on these trials can be found elsewhere (NCT04349800 and NCT04208412, available at https://clinicaltrials.gov).

The test system of the next data set is PKa‐mediated HK cleavage. Description: capillary‐based immunoassay of DXS‐stimulated HK cleavage in control plasma. It counts as biochemical, human. The note with it: for DXS‐stimulated generation of cHK: 6.25 µg/ml DXS. The protocol: as §1
The target in a further data set is Tryptase. Nature of the data set: isolated enzyme kinetic fluorogenic substrate IC50 assay. The class given is biochemical, human. The note with it: 5 min pre‐incubation.
Data set [2] is described as follows: plasma protein binding, Rapid Equilibrium Dialysis. It counts as in vitro ADME. The following applies: human, pH 7.4, control plasma, dialysed 5 h at 37°C, read-out: plasma protein binding (PPB) (converted). The protocol: PKa enzyme activity was measured in human pooled plasma (control plasma, Affinity Biologicals) using H‐D‐Pro‐Phe‐Arg‐AFC. The KKS in plasma was stimulated by the addition of dextran sulphate 500 kDa (DXS; Sigma‐Aldrich). PKa activity in the plasma was estimated based on the maximum rate of fluorescence increase. […] Percent plasma protein binding (PPB %) was determined using Rapid Equilibrium Dialysis (Pierce RED technology, ThermoFisher Scientific). Compounds were spiked into control plasma (final concentration 5 μM) and dialysed against phosphate buffer (pH 7.4) for 5 h at 37°C. Samples were analysed using liquid chromatography‐tandem mass spectrometry to quantify the fraction of unbound compound.
A general note: Equilibrium dialysis compares concentrations on both sides of a semipermeable membrane.

The next data set deals with FXIa (Homo sapiens, UniProt P03951). Nature of the data set: isolated enzyme kinetic fluorogenic substrate IC50 assay. The following applies: 5 min pre‐incubation. The class given is biochemical.
A further data set has as its target FXa (Homo sapiens, UniProt P00742). The data set is described as above. The class given is biochemical. The following applies: 5 min pre‐incubation.
The subject of data set [3] is HK cleavage. Nature of the data set: phase 2: DXS‐stimulated HK cleavage assay in HAE plasma after oral KVD900. The class given is in vivo, human. Here is the method: as §1, §2
Data set [4] concerns the target Tissue plasminogen activator (Homo sapiens, UniProt P00750). Nature of the data set: isolated enzyme kinetic fluorogenic substrate IC50 assay. The class given is biochemical. The note with it: 5 min pre‐incubation.
Description: (§3) Protease inhibition was measured by monitoring the rate of fluorescence generation at a fixed substrate concentration over a range of inhibitor concentrations. […] To estimate the IC50, a 4‐parameter logistic dose‐response curve was fitted to the normalized rate of fluorescence increase.
A further data set concerns the target Thrombin (Homo sapiens, UniProt P00734). The data set is described as above. The class given is biochemical. The note with it: 5 min pre‐incubation.
The next data set deals with Trypsin. Described as above. It counts as biochemical, human. The following applies: 5 min pre‐incubation.
In the next data set the test system is FXII. Nature of the data set: phase 1: capillary immunoassay of FXII and FXIIa in DXS‐stimulated plasma after oral KVD900. It counts as in vivo, human. The note with it: healthy volunteers, 600 mg oral. Here is the method:
as §1, §2

Data set [5] deals with T1, PKa (Homo sapiens, UniProt P03952).
T1 construct: host or cells: human pooled plasma, stimulated with dextran sulphate
Nature of the data set: phase 2: DXS‐stimulated PKa activity in HAE plasma after oral KVD900. The following applies: HAE subjects (n = 12), 600 mg oral tablets; 45 min post‐dose. The class given is in vivo.

The target of a further data set is Plasmin (Homo sapiens, UniProt P00747). Description: isolated enzyme kinetic fluorogenic substrate IC50 assay. The class given is biochemical. The note with it: 5 min pre‐incubation.
Another data set deals with Cathepsin D (Homo sapiens, UniProt P07339). The description is as above. The following applies: 5 min pre‐incubation. The class given is biochemical.
A further data set concerns the target FXIIa (Homo sapiens, UniProt P00748). Described as above. It counts as biochemical. The note with it: 5 min pre‐incubation.
A further data set has as its target FVIIa (Homo sapiens, UniProt P08709). Described as above. The class given is biochemical. The following applies: 5 min pre‐incubation.
For another data set, the target named is Renin (Homo sapiens, UniProt P00797). Described as above. The class given is biochemical. The following applies: 5 min pre‐incubation.
Another data set addresses Tissue kallikrein (Homo sapiens, UniProt P06870). The description is as above. It counts as biochemical. The following applies: 5 min pre‐incubation.
A short description of data set [6]: phase 2: plasma concentrations of KVD900 in HAE subjects. The class given is in vivo. The note with it: both sexes, human, HAE Type 1 and Type 2 subjects, 600 mg oral tablets, arithmetic mean, n = 42. The protocol:
as §2

Data set [7] deals with T1, PKa. Description: phase 1: DXS‐stimulated PKa activity in plasma after oral KVD900. It counts as in vivo. The following applies: healthy male volunteers, 600 mg oral powder in capsule, read-out: inhibition of DXS‐stimulated PKa activity compared with pre‐dose. The protocol: PKa enzyme activity was measured in human pooled plasma (control plasma, Affinity Biologicals) using H‐D‐Pro‐Phe‐Arg‐AFC. The KKS in plasma was stimulated by the addition of dextran sulphate 500 kDa (DXS; Sigma‐Aldrich). PKa activity in the plasma was estimated based on the maximum rate of fluorescence increase. […] Plasma samples were stimulated with 6.25 or 10 µg/ml DXS and PKa enzyme activity was measured as described above. Percent plasma protein binding (PPB %) was determined using Rapid Equilibrium Dialysis (Pierce RED technology, ThermoFisher Scientific). Compounds were spiked into control plasma (final concentration 5 μM) and dialysed against phosphate buffer (pH 7.4) for 5 h at 37°C. Samples were analysed using liquid chromatography‐tandem mass spectrometry to quantify the fraction of unbound compound.
as §2

Data set [8] relates to HK cleavage. Nature of the data set: phase 1: capillary immunoassay of HK and cHK in DXS‐stimulated plasma after oral KVD900. It counts as in vivo, human. The note with it: 600 mg oral. The protocol: as §1, §2
In data set [9] the test system is PKa. Set-up: method as in PMID 7692967. The note with it: cited from earlier work.
[10] abbreviates: six HAE patients, 600 mg oral tablets, 15 min through 4 h post‐dose.

T1 sequence (P03952 391-638 limits assumed): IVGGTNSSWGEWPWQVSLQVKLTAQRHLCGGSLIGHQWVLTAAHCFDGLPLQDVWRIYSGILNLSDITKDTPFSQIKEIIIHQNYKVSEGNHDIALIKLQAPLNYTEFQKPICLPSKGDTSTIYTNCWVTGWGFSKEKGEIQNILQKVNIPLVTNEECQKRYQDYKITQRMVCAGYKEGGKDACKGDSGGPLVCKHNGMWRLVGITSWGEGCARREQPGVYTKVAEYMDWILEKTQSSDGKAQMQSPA
T1 sequence (P03952 20-390 partner limits assumed): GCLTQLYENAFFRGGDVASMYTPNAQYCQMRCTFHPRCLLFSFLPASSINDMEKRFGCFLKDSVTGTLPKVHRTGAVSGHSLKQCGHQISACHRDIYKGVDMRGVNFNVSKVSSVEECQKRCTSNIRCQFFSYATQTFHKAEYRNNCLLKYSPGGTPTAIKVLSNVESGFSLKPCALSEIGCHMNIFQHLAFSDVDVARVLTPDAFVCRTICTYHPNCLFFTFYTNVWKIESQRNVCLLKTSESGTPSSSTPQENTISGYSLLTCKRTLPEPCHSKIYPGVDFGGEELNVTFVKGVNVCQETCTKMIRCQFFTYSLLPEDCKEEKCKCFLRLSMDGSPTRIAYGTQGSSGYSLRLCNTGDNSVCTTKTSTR
Chain of Cathepsin G (P08311 21-255): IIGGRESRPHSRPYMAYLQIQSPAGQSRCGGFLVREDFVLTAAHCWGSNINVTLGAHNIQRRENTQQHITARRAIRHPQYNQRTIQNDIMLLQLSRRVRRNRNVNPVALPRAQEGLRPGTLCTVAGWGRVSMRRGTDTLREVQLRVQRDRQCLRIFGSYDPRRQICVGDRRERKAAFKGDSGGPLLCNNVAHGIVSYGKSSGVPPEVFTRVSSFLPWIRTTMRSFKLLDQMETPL
Chain of Tissue plasminogen activator (P00750 36-562): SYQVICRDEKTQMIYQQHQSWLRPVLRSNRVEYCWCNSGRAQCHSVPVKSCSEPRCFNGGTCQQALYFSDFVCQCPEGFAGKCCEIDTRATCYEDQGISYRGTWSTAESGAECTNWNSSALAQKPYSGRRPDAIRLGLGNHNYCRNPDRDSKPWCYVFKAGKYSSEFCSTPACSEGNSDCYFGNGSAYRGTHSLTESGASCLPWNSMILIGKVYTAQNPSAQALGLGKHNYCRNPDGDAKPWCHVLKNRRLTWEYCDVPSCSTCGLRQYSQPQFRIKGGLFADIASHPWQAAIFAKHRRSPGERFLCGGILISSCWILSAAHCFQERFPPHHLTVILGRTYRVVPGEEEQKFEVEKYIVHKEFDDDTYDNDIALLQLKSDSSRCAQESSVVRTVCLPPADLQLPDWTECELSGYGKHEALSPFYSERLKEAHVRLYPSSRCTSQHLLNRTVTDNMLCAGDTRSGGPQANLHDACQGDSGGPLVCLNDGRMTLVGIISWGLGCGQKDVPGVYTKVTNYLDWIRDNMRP
Chain of Renin (P00797 67-406): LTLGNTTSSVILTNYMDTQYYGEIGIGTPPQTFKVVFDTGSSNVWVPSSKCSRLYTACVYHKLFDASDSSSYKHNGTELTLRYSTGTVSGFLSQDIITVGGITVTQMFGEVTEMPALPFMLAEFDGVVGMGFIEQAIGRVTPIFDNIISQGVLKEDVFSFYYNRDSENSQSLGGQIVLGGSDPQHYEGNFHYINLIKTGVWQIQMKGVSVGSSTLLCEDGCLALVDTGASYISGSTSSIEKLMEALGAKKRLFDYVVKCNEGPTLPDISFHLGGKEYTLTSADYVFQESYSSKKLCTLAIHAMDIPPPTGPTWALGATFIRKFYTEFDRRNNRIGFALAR
Chain of FXIIa (P00748 373-615 limits assumed): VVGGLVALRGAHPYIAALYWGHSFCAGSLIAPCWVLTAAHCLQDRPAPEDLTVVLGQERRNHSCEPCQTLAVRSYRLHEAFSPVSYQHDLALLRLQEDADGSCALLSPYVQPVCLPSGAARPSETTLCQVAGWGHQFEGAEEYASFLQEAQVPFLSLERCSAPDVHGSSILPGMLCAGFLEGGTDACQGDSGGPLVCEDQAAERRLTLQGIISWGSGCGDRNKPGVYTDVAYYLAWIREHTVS
Chain of Tissue kallikrein (P06870 25-262): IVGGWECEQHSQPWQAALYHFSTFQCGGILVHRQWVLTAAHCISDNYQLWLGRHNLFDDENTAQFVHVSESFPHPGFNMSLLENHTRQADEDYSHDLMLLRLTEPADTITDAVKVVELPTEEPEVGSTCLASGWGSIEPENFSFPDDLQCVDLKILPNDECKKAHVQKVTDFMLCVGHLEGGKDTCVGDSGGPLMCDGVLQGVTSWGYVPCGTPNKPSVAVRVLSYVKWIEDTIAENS
Chain of Beta‐secretase 1 (P56817 46-501): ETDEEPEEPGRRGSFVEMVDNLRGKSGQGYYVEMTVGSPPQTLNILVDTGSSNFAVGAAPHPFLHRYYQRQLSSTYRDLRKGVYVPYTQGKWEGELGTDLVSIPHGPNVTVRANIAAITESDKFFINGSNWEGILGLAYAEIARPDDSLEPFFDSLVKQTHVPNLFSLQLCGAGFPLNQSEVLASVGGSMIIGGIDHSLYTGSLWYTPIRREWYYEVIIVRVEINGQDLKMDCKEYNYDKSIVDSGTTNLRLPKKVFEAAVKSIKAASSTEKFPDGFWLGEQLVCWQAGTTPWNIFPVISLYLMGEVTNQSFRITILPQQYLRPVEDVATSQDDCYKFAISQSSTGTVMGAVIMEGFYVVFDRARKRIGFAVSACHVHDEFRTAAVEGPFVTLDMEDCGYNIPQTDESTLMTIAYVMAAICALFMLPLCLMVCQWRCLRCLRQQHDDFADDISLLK
Chain of FXa (P00742 235-488 limits assumed): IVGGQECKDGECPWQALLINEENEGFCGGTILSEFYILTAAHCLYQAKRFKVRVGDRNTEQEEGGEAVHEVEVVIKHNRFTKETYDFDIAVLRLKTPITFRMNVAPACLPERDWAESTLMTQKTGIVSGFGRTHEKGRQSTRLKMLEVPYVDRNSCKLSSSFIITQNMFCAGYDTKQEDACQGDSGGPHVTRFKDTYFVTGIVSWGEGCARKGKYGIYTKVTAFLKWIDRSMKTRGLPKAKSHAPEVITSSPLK
Chain of FXa (P00742 41-179 partner limits assumed): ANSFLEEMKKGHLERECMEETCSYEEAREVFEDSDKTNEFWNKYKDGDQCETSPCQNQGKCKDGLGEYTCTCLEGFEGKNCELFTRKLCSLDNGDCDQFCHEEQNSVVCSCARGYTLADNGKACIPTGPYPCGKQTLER
Chain of Cathepsin D (P07339 65-412): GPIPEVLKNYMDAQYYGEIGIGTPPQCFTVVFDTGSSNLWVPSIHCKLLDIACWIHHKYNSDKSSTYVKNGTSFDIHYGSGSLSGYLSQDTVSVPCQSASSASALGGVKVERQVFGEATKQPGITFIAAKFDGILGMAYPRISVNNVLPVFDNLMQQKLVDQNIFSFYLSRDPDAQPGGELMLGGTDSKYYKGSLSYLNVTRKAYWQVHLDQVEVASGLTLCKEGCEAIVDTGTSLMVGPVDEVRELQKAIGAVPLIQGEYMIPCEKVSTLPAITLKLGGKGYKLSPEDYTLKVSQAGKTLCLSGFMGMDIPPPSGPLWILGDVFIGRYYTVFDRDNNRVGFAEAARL
Chain of FXIa (P03951 388-625 limits assumed): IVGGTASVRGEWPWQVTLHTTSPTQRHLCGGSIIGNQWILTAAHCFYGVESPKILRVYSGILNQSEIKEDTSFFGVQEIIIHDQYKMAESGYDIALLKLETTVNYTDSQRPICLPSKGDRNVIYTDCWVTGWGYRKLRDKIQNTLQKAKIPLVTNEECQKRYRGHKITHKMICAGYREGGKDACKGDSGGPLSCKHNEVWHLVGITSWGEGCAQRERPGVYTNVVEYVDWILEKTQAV
Chain of FXIa (P03951 19-387 partner limits assumed): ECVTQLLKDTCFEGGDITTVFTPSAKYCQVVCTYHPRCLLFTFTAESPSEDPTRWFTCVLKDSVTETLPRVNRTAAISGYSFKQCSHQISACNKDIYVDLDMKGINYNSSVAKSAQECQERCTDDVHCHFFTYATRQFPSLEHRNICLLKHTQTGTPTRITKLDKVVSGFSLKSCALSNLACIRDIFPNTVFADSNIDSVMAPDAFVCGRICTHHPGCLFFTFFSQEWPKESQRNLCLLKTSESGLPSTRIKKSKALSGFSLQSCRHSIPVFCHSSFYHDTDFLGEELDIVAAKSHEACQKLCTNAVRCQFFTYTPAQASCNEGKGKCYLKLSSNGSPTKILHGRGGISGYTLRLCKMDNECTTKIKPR
Chain of FVIIa (P08709 213-466 limits assumed): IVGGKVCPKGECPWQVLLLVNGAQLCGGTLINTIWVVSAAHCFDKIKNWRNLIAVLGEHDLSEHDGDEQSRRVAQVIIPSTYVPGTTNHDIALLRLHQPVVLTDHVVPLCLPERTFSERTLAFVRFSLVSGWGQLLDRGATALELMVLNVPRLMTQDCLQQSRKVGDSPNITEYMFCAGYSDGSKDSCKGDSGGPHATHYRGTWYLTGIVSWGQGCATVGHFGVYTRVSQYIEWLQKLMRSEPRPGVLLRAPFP
Chain of FVIIa (P08709 61-212 partner limits assumed): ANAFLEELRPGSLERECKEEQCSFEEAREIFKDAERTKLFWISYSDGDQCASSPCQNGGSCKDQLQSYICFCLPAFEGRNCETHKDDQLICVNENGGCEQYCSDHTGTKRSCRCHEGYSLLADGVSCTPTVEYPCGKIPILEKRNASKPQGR
Description for Beta‐secretase 1: as §3
Description for Cathepsin D: as §3
Description for Cathepsin G: as §3
Description for FVIIa: as §3
Description for FXIa: as §3
Description for FXa: as §3
Description for Renin: as §3
Description for Thrombin: as §3
Description for Tissue kallikrein: as §3
Description for Trypsin: as §3
Description for Tryptase: as §3

The term IC50 denotes the concentration that gives 50% inhibition. The term inhibition denotes the change of the read-out against control, counted positive when it falls. What is called Cmax is the peak of the concentration-time curve. A word on the Tmax: it is the time from dosing to the highest level. With `COCc1nn(Cc2ccc(Cn3ccccc3=O)cc2)cc1C(=O)NCc1nccc(OC)c1F` [KVD900], the IC50 was over 10 µM on Cathepsin G; over 10 µM against Beta‐secretase 1; about 0.2 µM in the data set with PKa‐mediated HK cleavage (control plasma, 15 min pre‐treatment, 6.25 µg/ml DXS on ice 17 min, read-out: IC50, protection of HK from DXS‐stimulated depletion); over 10 µM against Tryptase; over 40 µM at FXIa; over 10 µM against FXa. Also, the half-maximal inhibitory concentration (IC50) in data set [4] was over 10 µM; against Thrombin, over 40 µM; on Trypsin it was over 40 µM; at Plasmin, over 40 µM; on Cathepsin D, over 10 µM; against FXIIa, over 40 µM. Further, the IC50 against FVIIa, against Renin and on Tissue kallikrein was over 10 µM each time. Besides, the “PK after DXS‐stimulation, % of unstimulated plasma” value is on record as 82.7 ± 4.4% in data set [1] (1 h post‐dose) and 87.0± 4.1% in data set [1] (6 h post‐dose). Besides, in data set [1] (later time points (≥8 h)), the “DXS‐stimulated decrease in PK” value was “comparable to the PK decrease observed in pre‐dose samples”. Further, the “DXS‐stimulated generation of cHK” value with PKa‐mediated HK cleavage (300 nM) and in the data set with PKa‐mediated HK cleavage (1000 nM) was “fully inhibited” throughout. Also, the fraction unbound at 5 h, 5 μM in data set [2] was 0.23. Also, in the data set on HK cleavage [3] (600 mg oral), the “time post‐dose from which inhibition of HK cleavage (and PKa activity) is observed” value is reported as 15 min. Also, the “cHK levels in DXS‐stimulated plasma” value in the data set on HK cleavage [3] (setting [10]) is listed as “comparable with unstimulated plasma”; in the data set with HK cleavage [8] (healthy volunteers, 1, 6 and 8 h post‐dose) it was “not significantly increased compared with pre‐dose without DXS”. In addition, in the data set on HK cleavage [3] (setting [10]), the “protection from DXS‐stimulated depletion of HK” value was “strongly protected”. The “FXII protection in DXS‐stimulated plasma compared with pre‐dose” value in the data set on FXII (1 and 6 h post‐dose) is “non‐significant”. Moreover, the “reduction of DXS‐stimulated generation of FXIIa compared with pre‐dose” value in the data set with FXII (1 h post‐dose), in the data set with FXII (6 h post‐dose) and in the data set on FXII (8 h post‐dose) was over 90% throughout. For the same molecule, the inhibition at 600 mg is at least 95% against PKa [5]; over 97% at PKa [7] (1 h post‐dose); over 97% at PKa [7] (4 h post‐dose); over 90% on PKa [7] (6 h post‐dose); over 83% at PKa [7] (8 h post‐dose). In addition, in [6], the highest level (Cmax) was 6570 ng/mL. In addition, in [6], the time of peak concentration (Tmax) was found to be 1.2 h. Besides, the “time for which DXS‐stimulated generation of cHK was not detectable” value with HK cleavage [8] is recorded as “at least 6 h”. Besides, the “HK remaining after DXS‐stimulation” value with HK cleavage [8] (healthy volunteers, 1 to 8 hours post‐dose) is over 65%.

B1: DX‐2930: PKa inhibitor DX‐2930 (lanadelumab), approved treatment for HAE (antibody, chains of the INN, looked up, V domains shown)
VH: EVQLLESGGGLVQPGGSLRLSCAASGFTFSHYIMMWVRQAPGKGLEWVSGIYSSGGITVYADSVKGRFTISRDNSKNTLYLQMNSLRAEDTAVYYCAYRRIGVPRRDEFDIWGQGTMVTVSS
VL: DIQMTQSPSTLSASVGDRVTITCRASQSISSWLAWYQQKPGKAPKLLIYKASTLESGVPSRFSGSGSGTEFTLTISSLQPDDFATYYCQQYNTYWTFGQGTKVEIK
B1: the “reported Kon for PKa” value with PKa [9] is 3.4e+06 M⁻¹ s⁻¹.

B2: C1‐INH: serine protease inhibitor (serpin) that covalently binds and inactivates PKa and FXIIa (protein, UniProt P05155 23-500, looked up)
Plasma protease C1 inhibitor: NPNATSSSSQDPESLQDRGEGKVATTVISKMLFVEPILEVSSLPTTNSTTNSATKITANTTDEPTTQPTTEPTTQPTIQPTQPTTQLPTDSPTQPTTGSFCPGPVTLCSDLESHSTEAVLGDALVDFSLKLYHAFSAMKKVETNMAFSPFSIASLLTQVLLGAGENTKTNLESILSYPKDFTCVHQALKGFTTKGVTSVSQIFHSPDLAIRDTFVNASRTLYSSSPRVLSNNSDANLELINTWVAKNTNNKISRLLDSLPSDTRLVLLNAIYLSAKWKTTFDPKKTRMEPFHFKNSVIKVPMMNSKKYPVAHFIDQTLKAKVGQLQLSHNLSLVILVPQNLKHRLEDMEQALSPSVFKAIMEKLEMSKFQPTLLTLPRIKVTTSQDMLSIMEKLEFFDFSYDLNLCGLTEDPDLQVSAMQHQTVLELTETGVEAAAASAISVARTLLVFEVQQPFLFVLWDQQHKFPVFMGRVYDPRA
As to B2, the “reported Kon for PKa” value in the data set on PKa [9] is 17000 M⁻¹ s⁻¹.
